# Columns and labels:
# [1] = tested on: whole dorsal root ganglion (DRG); assay: neurite extension of whole dorsal root ganglion cultured on scaffolds; type: cell-based; details: DRG on PLLA/PLLA scaffolds with 100 nM bolus of exogenous E2 at the beginning of culture
# Procedure: To examine the bioactivity of E2 released during poly(pro-drug) material degradation and the effects of sustained E2 release on neurons, whole dorsal root ganglion (DRG) were cultured on poly(pro-drug) material films to examine the ability of the poly(pro-drug) material to promote neurite extension. To analyze material-derived neurite extension, DRG were cultured onto three types of scaffolds: 1) PLLA fibers electrospun onto a PLLA film (PLLA/PLLA), 2) PLLA fibers electrospun on to a PLLA film with a 100 nM bolus of exogenous E2 at the beginning of culture (PLLA/PLLA+Exo E2), and 3) PLLA fibers electrospun onto a poly(pro-drug) material film (PLLA/P1). […] PLLA fibers were used in this experiment to isolate the effects of E2 released the poly(pro-drug) material as the only factor influencing DRG neurite extension.
# [2] = not told
Compound,average neurite outgrowth from DRG [1] [μm],Young's modulus (Er) [2] [GPa]
"C[C@]12CC[C@@H]3c4ccc(O)cc4CC[C@H]3[C@@H]1CC[C@@H]2O [E2, 17β-Estradiol]",526.7±273.4,
poly(L-lactic acid) [PLLA],,5.38±1.06

# Reference: patent publication US11202834B2, “Synthesis and processing of poly(pro-drug) materials for extended drug release and uses thereof” (RENSSELAER POLYTECHNIC INSTITUTE, priority 2018, dated 2021)
